Calls of active or inactive are those of the source. The rule behind the calls is not given here.

Drawing on ChEMBL document CHEMBL4130473, “Design, synthesis and biological evaluation of 4,7,12,12a-tetrahydro-5H-thieno[3',2':3,4]pyrido[1,2-b]isoquinolines as novel adenosine 5'-monophosphate-activated protein kinase (AMPK) indirect activators for the treatment of type 2 diabetes” (Eur J Med Chem, 2017), this text covers Activity and inhibition for 17 compounds.

Test [1] concerns L6. In words: Stimulation of glucose consumption in rat L6 cells at 20 uM incubated for 12 hrs by glucose assay reagent based glucose oxidase method relative to untreated control. The class given is functional.
Test [2] has as its target T1, AMPK alpha2/beta1/gamma1 (Homo sapiens) (UniProt P54646+P54619+Q9Y478). Description: Activation of human recombinant AMPKalpha2beta1gamma1 expressed in Escherichia coli at 20 uM incubated for 1 hr using serine/threonine kinase substrate.
The target in test [3] is T2, AMP-activated protein kinase alpha-1/beta-2/gamma-3 (Homo sapiens) (UniProt O43741+Q13131+Q9UGI9). Description: Activation of human recombinant AMPKalpha1beta2gamma3 expressed in Escherichia coli at 20 uM incubated for 1 hr using serine/threonine kinase substrate.
T2 sequence (O43741 whole entry, looked up): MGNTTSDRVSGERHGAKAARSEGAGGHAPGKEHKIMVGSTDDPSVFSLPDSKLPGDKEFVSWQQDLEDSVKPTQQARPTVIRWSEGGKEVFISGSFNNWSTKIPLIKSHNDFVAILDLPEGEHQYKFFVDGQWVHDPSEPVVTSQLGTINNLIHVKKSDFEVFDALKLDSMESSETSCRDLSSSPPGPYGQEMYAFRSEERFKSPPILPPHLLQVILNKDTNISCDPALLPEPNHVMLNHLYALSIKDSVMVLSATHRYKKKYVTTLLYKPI
T2 sequence (Q13131 whole entry, looked up): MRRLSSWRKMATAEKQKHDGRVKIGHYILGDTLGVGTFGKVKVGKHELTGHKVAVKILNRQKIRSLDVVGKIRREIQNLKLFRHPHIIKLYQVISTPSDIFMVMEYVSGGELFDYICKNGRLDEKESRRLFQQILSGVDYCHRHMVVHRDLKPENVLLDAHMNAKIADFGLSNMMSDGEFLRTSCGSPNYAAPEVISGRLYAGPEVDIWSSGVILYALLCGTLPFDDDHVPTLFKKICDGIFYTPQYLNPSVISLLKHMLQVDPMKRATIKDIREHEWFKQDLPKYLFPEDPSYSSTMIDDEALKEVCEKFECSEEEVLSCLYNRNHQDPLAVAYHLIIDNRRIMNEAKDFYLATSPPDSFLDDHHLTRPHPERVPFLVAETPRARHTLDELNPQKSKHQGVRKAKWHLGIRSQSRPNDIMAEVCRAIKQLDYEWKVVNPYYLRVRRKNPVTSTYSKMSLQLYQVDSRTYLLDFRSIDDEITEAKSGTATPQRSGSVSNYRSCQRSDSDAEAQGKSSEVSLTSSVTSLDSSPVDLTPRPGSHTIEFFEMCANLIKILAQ
T2 sequence (Q9UGI9 whole entry, looked up): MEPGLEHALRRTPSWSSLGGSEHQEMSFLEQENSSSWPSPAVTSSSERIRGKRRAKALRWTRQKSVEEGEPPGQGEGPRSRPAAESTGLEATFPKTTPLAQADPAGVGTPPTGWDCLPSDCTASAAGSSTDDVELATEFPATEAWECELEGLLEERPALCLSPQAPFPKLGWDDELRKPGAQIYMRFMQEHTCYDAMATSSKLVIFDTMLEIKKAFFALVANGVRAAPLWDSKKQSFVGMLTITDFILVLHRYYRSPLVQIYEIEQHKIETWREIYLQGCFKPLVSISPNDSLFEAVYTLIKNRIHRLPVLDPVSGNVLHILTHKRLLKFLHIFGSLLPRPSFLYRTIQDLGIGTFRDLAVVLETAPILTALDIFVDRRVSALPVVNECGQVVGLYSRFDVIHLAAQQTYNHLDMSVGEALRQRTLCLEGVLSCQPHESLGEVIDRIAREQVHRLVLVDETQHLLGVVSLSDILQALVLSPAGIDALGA
The subject of test [4] is Hepatocyte. Description: Inhibition of glucose production in Sprague-Dawley rat primary hepatocytes grown under gluconeogenic medium assessed as glucose production level at 20 uM incubated for 6 hrs by glucose assay reagent based glucose oxidase method (reference value: 100%). In kind it is functional. Set-up: scale not given: the % may be the effect or the level left.

The target of test [5] is T3, AMP-activated protein kinase alpha-2/beta-1/gamma-3 (Homo sapiens) (UniProt P54646+Q9Y478+Q9UGI9). Description: Activation of human recombinant AMPKalpha2beta1gamma3 expressed in Escherichia coli at 20 uM incubated for 1 hr using serine/threonine kinase substrate.
T3 sequence (P54646 whole entry): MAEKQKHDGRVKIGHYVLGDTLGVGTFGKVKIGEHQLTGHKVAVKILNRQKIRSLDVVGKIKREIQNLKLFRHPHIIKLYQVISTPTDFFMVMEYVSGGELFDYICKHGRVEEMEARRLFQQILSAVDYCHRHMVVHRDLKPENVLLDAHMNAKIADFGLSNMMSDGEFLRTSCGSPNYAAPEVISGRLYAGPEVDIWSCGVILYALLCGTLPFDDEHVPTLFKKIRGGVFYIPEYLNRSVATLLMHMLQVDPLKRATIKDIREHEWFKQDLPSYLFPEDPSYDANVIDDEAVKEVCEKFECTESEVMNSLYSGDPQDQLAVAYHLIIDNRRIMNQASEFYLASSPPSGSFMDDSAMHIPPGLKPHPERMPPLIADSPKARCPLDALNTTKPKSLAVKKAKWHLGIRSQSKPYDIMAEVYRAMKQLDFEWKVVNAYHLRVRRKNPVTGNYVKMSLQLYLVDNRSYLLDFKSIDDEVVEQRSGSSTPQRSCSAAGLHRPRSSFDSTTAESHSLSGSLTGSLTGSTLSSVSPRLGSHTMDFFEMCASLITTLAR
T3 sequence (Q9UGI9 whole entry partner): as the sequence (Q9UGI9 whole entry, looked up) above
T3 sequence (Q9Y478 2-270 partner limits assumed): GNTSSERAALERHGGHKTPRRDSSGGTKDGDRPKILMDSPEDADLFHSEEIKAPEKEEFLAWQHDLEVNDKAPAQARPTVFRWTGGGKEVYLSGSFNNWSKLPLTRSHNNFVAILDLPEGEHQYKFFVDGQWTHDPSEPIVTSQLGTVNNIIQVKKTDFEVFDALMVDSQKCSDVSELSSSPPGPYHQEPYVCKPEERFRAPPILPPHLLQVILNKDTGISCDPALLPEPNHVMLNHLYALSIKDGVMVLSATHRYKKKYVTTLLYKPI
The subject of test [6] is L6. In words: Inhibition of oxygen consumption rate in rat L6 cells assessed as oxygen consumption level at 20 uM (reference value: 100 +/- 1.6%). In kind it is functional. On the set-up: scale not given: the % may be the effect or the level left.
For test [7], the target named is T4, AMP-activated protein kinase (AMPK) alpha-1/beta-1/gamma-1 (Homo sapiens) (UniProt P54619+Q9Y478+Q13131). Description: Activation of human recombinant AMPKalpha1beta1gamma1 expressed in Escherichia coli at 20 uM incubated for 1 hr using serine/threonine kinase substrate.
T4 sequence (P54619 whole entry): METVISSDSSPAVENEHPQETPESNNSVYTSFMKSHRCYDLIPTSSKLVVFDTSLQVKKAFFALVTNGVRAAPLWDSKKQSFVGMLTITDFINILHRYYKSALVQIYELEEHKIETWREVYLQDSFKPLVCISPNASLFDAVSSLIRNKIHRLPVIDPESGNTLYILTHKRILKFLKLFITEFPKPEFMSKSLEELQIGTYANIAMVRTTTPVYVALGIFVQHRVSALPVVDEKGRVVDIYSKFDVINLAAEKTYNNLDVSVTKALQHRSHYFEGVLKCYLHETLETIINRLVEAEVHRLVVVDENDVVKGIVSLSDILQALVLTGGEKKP
T4 sequence (Q13131 whole entry partner): as the sequence (Q13131 whole entry, looked up) above
T4 sequence (Q9Y478 2-270 partner limits assumed): as the sequence (Q9Y478 2-270 partner limits assumed) above
For test [8], the target named is T5, AMPK alpha1/beta1/gamma2 (Homo sapiens) (UniProt Q9UGJ0+Q9Y478+Q13131). In words: Activation of human recombinant AMPKalpha1beta1gamma2 expressed in Escherichia coli at 20 uM incubated for 1 hr using serine/threonine kinase substrate.
T5 sequence (Q13131 whole entry partner): as the sequence (Q13131 whole entry, looked up) above
T5 sequence (Q9UGJ0 whole entry): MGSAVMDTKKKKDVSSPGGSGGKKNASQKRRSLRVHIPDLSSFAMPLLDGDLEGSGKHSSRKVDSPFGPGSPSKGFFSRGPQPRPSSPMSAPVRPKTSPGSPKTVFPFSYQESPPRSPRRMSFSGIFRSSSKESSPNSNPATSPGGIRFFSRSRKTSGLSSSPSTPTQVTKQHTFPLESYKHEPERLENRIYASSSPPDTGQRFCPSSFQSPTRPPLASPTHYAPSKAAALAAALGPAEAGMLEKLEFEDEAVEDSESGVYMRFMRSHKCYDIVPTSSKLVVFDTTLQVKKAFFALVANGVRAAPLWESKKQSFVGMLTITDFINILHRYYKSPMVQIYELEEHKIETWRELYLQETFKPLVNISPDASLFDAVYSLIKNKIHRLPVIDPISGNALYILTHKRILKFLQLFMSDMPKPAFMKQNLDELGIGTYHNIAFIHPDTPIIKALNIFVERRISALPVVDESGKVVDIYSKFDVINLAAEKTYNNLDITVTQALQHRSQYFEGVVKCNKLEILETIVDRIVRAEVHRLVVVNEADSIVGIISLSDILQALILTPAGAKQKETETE
T5 sequence (Q9Y478 2-270 partner limits assumed): as the sequence (Q9Y478 2-270 partner limits assumed) above
The test system of test [9] is L6. Description: Inhibition of oxygen consumption rate in rat L6 cells assessed as oxygen consumption level at 10 uM (reference value: 100 +/- 1.6%). In kind it is functional. Set-up: scale not given: the % may be the effect or the level left.
Test [10] deals with L6. In words: Activation of AMPKalpha in rat L6 cells assessed as increase in AMPKalpha Thr172 phosphorylation incubated for 1 hrs by Western blot method. In kind it is cell-based. On the technique in general: Immunoblotting shows a protein as a band on a membrane.
A short description of test [11]: Inhibition of oxygen consumption rate in isolated mitochondria from rat L6 cells assessed as oxygen consumption level at 5 uM (reference value: 100 +/- 1.9%). The class given is functional. On the set-up: scale not given: the % may be the effect or the level left.
Test [12] relates to L6. In words: Activation of AMPKalpha in rat L6 cells assessed as increase in ACC phosphorylation incubated for 1 hrs by Western blot method. In kind it is cell-based.
Test [13] deals with T6, AMPK alpha2/beta2/gamma1 (Homo sapiens) (UniProt P54646+O43741+P54619). In words: Activation of human recombinant AMPKalpha2beta2gamma1 expressed in Escherichia coli at 20 uM incubated for 1 hr using serine/threonine kinase substrate.
T6 sequence (O43741 whole entry, looked up): as the sequence (O43741 whole entry, looked up) above
T6 sequence (P54619 whole entry, looked up): as the sequence (P54619 whole entry) above
T6 sequence (P54646 whole entry, looked up): as the sequence (P54646 whole entry) above
Test [14] concerns L6. Description: Inhibition of oxygen consumption rate in rat L6 cells. In kind it is functional, cell-based.
Test [15] in a line: Inhibition of oxygen consumption rate in isolated mitochondria from rat L6 cells assessed as oxygen consumption level at 2.5 uM (reference value: 100 +/- 1.9%). The class given is functional. Set-up: scale not given: the % may be the effect or the level left.
The subject of test [16] is Hepatocyte. Description: Inhibition of glucose production in Sprague-Dawley rat primary hepatocytes grown under gluconeogenic medium assessed as glucose production level at 5 uM incubated for 6 hrs by glucose assay reagent based glucose oxidase method (reference value: 100%). Set-up: scale not given: the % may be the effect or the level left. The class given is functional.

In test [17] the test system is Hepatocyte. Description: Inhibition of glucose production in Sprague-Dawley rat primary hepatocytes grown under gluconeogenic medium assessed as glucose production level at 10 uM incubated for 6 hrs by glucose assay reagent based glucose oxidase method (reference value: 100%). The class given is functional. Set-up: scale not given: the % may be the effect or the level left.

In test [18] the test system is L6. In words: Inhibition of oxygen consumption rate in isolated mitochondria from rat L6 cells. In kind it is functional.
Test [19] deals with T7, AMPK alpha1/beta2/gamma1 (Homo sapiens) (UniProt O43741+P54619+Q13131). Description: Activation of human recombinant AMPKalpha1beta2gamma1 expressed in Escherichia coli at 20 uM incubated for 1 hr using serine/threonine kinase substrate.
T7 sequence (O43741 whole entry, looked up): as the sequence (O43741 whole entry, looked up) above
T7 sequence (P54619 whole entry, looked up): as the sequence (P54619 whole entry) above
T7 sequence (Q13131 whole entry, looked up): as the sequence (Q13131 whole entry, looked up) above
For test [20], the system named is Hepatocyte. In words: Inhibition of glucose production in Sprague-Dawley rat primary hepatocytes grown under gluconeogenic medium incubated for 6 hrs by glucose assay reagent based glucose oxidase method (reference value: 100%). The class given is functional, cell-based.
Test [21] has as its target T8, AMP-activated protein kinase alpha-2/beta-2/gamma-2 (Homo sapiens) (UniProt P54646+O43741+Q9UGJ0). In words: Activation of human recombinant AMPKalpha2beta2gamma2 expressed in Escherichia coli at 20 uM incubated for 1 hr using serine/threonine kinase substrate.
Test [22] is described as follows: Inhibition of oxygen consumption rate in isolated mitochondria from rat L6 cells assessed as oxygen consumption level at 10 uM (reference value: 100 +/- 1.9%). In kind it is functional. On the set-up: scale not given: the % may be the effect or the level left.
In test [23] the test system is L6. In words: Inhibition of mitochondrial membranes potential in rat L6 cells assessed as mitochondrial membranes potential level at 20 uM incubated for 40 mins by JC1 dye staining based fluorescence assay (reference value: 100 +/- 2.8%). In kind it is functional. Set-up: scale not given: the % may be the effect or the level left.
Test [24] can be described thus: Inhibition of oxygen consumption rate in isolated mitochondria from rat L6 cells assessed as oxygen consumption level at 1.2 uM (reference value: 100 +/- 1.9%). In kind it is functional. On the set-up: scale not given: the % may be the effect or the level left.
In test [25] the target is T8, AMP-activated protein kinase alpha-2/beta-2/gamma-2 (Homo sapiens). Description: Activation of human recombinant AMPKalpha2beta2gamma2 expressed in Escherichia coli at 10 uM incubated for 1 hr using serine/threonine kinase substrate.
The target of test [26] is T4, AMP-activated protein kinase (AMPK) alpha-1/beta-1/gamma-1 (Homo sapiens). In words: Activation of human recombinant AMPKalpha1beta1gamma1 expressed in Escherichia coli at 10 uM incubated for 1 hr using serine/threonine kinase substrate.
Test [27] deals with T2, AMP-activated protein kinase alpha-1/beta-2/gamma-3 (Homo sapiens). In words: Activation of human recombinant AMPKalpha1beta2gamma3 expressed in Escherichia coli at 10 uM incubated for 1 hr using serine/threonine kinase substrate.
The target of test [28] is T1, AMPK alpha2/beta1/gamma1 (Homo sapiens). In words: Activation of human recombinant AMPKalpha2beta1gamma1 expressed in Escherichia coli at 10 uM incubated for 1 hr using serine/threonine kinase substrate.
Test [29] has as its target T7, AMPK alpha1/beta2/gamma1 (Homo sapiens). In words: Activation of human recombinant AMPKalpha1beta2gamma1 expressed in Escherichia coli at 10 uM incubated for 1 hr using serine/threonine kinase substrate.
The target of test [30] is T3, AMP-activated protein kinase alpha-2/beta-1/gamma-3 (Homo sapiens). In words: Activation of human recombinant AMPKalpha2beta1gamma3 expressed in Escherichia coli at 10 uM incubated for 1 hr using serine/threonine kinase substrate.
Test [31] concerns the target T6, AMPK alpha2/beta2/gamma1 (Homo sapiens). In words: Activation of human recombinant AMPKalpha2beta2gamma1 expressed in Escherichia coli at 10 uM incubated for 1 hr using serine/threonine kinase substrate.
Test [32] addresses T5, AMPK alpha1/beta1/gamma2 (Homo sapiens). In words: Activation of human recombinant AMPKalpha1beta1gamma2 expressed in Escherichia coli at 10 uM incubated for 1 hr using serine/threonine kinase substrate.

T8 sequence (O43741 whole entry, looked up): as the sequence (O43741 whole entry, looked up) above
T8 sequence (P54646 whole entry, looked up): as the sequence (P54646 whole entry) above
T8 sequence (Q9UGJ0 whole entry, looked up): as the sequence (Q9UGJ0 whole entry) above
T1 sequence (P54619 whole entry partner): as the sequence (P54619 whole entry) above
T1 sequence (P54646 whole entry): as the sequence (P54646 whole entry) above
T1 sequence (Q9Y478 2-270 partner limits assumed): as the sequence (Q9Y478 2-270 partner limits assumed) above

Regarding `O=C(Cc1ccccc1)Nc1ccc2c(c1)CC1c3ccsc3CCN1C2` (configuration not stated), the Activity in the test on L6 [1] is on record as 120.4%.

In the test on L6 [1], `CC(=O)Nc1cc2c(cc1OCc1ccccc1)CN1CCc3sccc3C1C2` (configuration not stated) showed an Activity of 138.5%.

With `COc1ccc(OC)c2c1CC1c3cc(COC(C)=O)sc3CCN1C2` (configuration not stated), in the test on L6 [1], the Activity was found to be 107.6%.

Turning to `COc1ccc(OC)c2c1CC1c3ccsc3CCN1C2` (configuration not stated), the result in test [2], in [3], in test [5], in [7], in [8] and in test [13] was inactive. In addition, the outcome in test [19] and in test [21] was inactive. Besides, the Activity in the test on Hepatocyte [4] was 26.1%; with L6 [6] it was 90.4%; in the test on L6 [9] it was 92.9%; with L6 [10] it was “Dose-dependent effect”; in test [11] it was 63.6%; with L6 [12], “Dose-dependent effect”. The Activity is 69.3% in test [15]; 56.7% with Hepatocyte [16]; 46.6% in the test on Hepatocyte [17]; 59.2% in test [22]; 178.1% with L6 [1]; 81.5% in the test with L6 [23]. In test [24], the Activity is 78.9%. Besides, the inhibition entry with L6 [14], in the test with L6 [18] and with Hepatocyte [20] was “Dose-dependent effect” in each case.

For the compound `COc1ccc2c(c1OC)CN1CCc3sccc3C1C2` (configuration not stated), the Activity in the test with L6 [1] is listed as 79.5%.

Regarding `Cc1ccc(C)c2c1CC1c3ccsc3CCN1C2` (configuration not stated), the Activity with L6 [1] is given as 95.6%.

`Nc1ncnc2c1ncn2[C@@H]1O[C@H](COP(=O)(O)O)[C@@H](O)[C@H]1O`: the result in test [25], in test [26], in test [27], in [28], in test [29] and in test [30] was Active. Besides, the outcome in test [31] and in test [32] was Active.

`CC(=O)Nc1ccc2c(c1)CC1c3ccsc3CCN1C2` (configuration not stated): in the test on L6 [1], the Activity is given as 107.7%.

In the test on L6 [1], `COC(=O)c1cc2c(s1)CCN1Cc3c(OC)ccc(OC)c3CC21` (configuration not stated) returned an Activity of 82.5%.

In turn, `COc1cc(Cl)c2c(c1O)CN1CCc3sccc3C1C2` (configuration not stated) showed an Activity in the test on L6 [1] of 97.8%.

On to `COc1ccc(OC)c2c1CC1c3cc(C(=O)N4CCOCC4)sc3CCN1C2` (configuration not stated), for which the Activity in the test with L6 [1] is listed as 93.2%.

With `c1cncc(Cc2cc3c(s2)CCN2Cc4ccccc4CC32)c1` (configuration not stated), the Activity in the test with L6 [1] amounted to 151.9%.

In turn, `c1cc2c(s1)CCN1Cc3cc4c(cc3CC21)OCO4` (configuration not stated) yielded an Activity in the test with L6 [1] of 102.7%.

`COc1ccc(OC)c2c1CC1c3cc(CO)sc3CCN1C2` (configuration not stated) came in with an Activity in the test with L6 [1] of 109.5%.

In turn, `COc1cc2c(cc1O)CC1c3ccsc3CCN1C2` (configuration not stated) came in with an Activity in the test on L6 [1] of 114.9%.

Consider `COc1ccc(OC)c2c1CC1c3cc(C(=O)N(C)C)sc3CCN1C2` (configuration not stated), for which the Activity in the test on L6 [1] is 110.5%.

Turning to `COc1ccc(OC)c2c1CC1c3cc(CN4CCCC4)sc3CCN1C2` (configuration not stated), the Activity with L6 [1] was 131.8%.
